We go through 22 molecules from the supplement of paper PMC5908809.

SMILES strings stand for the structures. Where only a bound is given, the exact number is not on record here.

Experiment in all cases: relative IC50 (inflection point of fitted viability curve, relative to fitted max inhibition); higher = less sensitive
Conditions in all cases: 72 h

One assay relates to IMC-1 (IL-2 20 ng/mL). On the procedure: (§1)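 Drug sensitivity and resistance testing: 5 concentrations over a 10,000-fold range, 72 h at 37 °C, viability by CellTiter-Glo normalised to DMSO and benzethonium chloride controls. IC50 is the inflection point of a logistic fit (min fixed at 0, max fitted), so it is relative to the fitted maximal inhibition. Kept only where fitted max inhibition is at least 50%.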

The test system of a further assay is NK-YS (IL-2 2.5 ng/mL). On the procedure:
as §1

Another assay has as its system KHYG-1 (IL-2 2.5 ng/mL). On the procedure: as §1
The test system of the next assay is SNK-6 (IL-2 2.5 ng/mL). On the procedure: as §1
The next assay relates to DERL-7 (IL-2 2.5 ng/mL). The protocol: as §1
Another assay has as its system KAI3 (IL-2 2.5 ng/mL). The protocol:
as §1

The next assay concerns NK-92 (IL-2 2.5 ng/mL). On the procedure: as §1
In the next assay the test system is YT (IL-2 2.5 ng/mL). The protocol:
as §1

The next assay relates to NKL (IL-2 2.5 ng/mL). On the procedure:
as §1

By relative IC50 is commonly meant the concentration at the midpoint between the plateaus of the fitted inhibition curve. `CCn1cc(-c2ccnc3[nH]c(-c4cccc(CN(C)C)c4)cc23)c(-c2ccc(NC(=O)N(C)C)cc2)n1`: the “relative IC50” value worked out at 0.158 µM in the assay on IMC-1 (IL-2 20 ng/mL); 0.0123 µM in the assay on NK-YS (IL-2 2.5 ng/mL); 0.0397 µM with KHYG-1 (IL-2 2.5 ng/mL); 0.00421 µM with SNK-6 (IL-2 2.5 ng/mL); 0.0176 µM with DERL-7 (IL-2 2.5 ng/mL).

For the molecule `Nc1nccc(-c2c(-c3ccc(F)cc3)ncn2C2CCCCC2)n1`, the figures for the “relative IC50” value in the assay on KAI3 (IL-2 2.5 ng/mL) and with SNK-6 (IL-2 2.5 ng/mL) were 0.0391 µM and 2.17 µM, respectively.

On to `O=C(Nc1cccc(C(F)(F)F)c1)Nc1cc(S(=O)(=O)NC2CC2)ccc1-c1ccsc1` [AGI-6780], for which the “relative IC50” value in the assay with NK-92 (IL-2 2.5 ng/mL) stood at 1.39 µM.

As for `COc1cc(N2CCC(N3CCN(C)CC3)CC2)ccc1Nc1ncnc(Nc2ccccc2S(=O)(=O)C(C)C)n1` [ASP3026], the “relative IC50” value with IMC-1 (IL-2 20 ng/mL) was determined as 3.35 µM; in the assay on KHYG-1 (IL-2 2.5 ng/mL), 1.9 µM; in the assay with YT (IL-2 2.5 ng/mL), 1.83 µM; in the assay with DERL-7 (IL-2 2.5 ng/mL), 3.11 µM.

For the molecule `CNC(=O)c1cccc(-c2ccc3c(N4CCOC[C@@H]4C)nc(N4CCOC[C@@H]4C)nc3n2)c1` [AZD2014], the “relative IC50” value is 0.0248 µM with KAI3 (IL-2 2.5 ng/mL); 0.266 µM in the assay on NK-YS (IL-2 2.5 ng/mL); 0.317 µM in the assay with NK-92 (IL-2 2.5 ng/mL); 0.714 µM with KHYG-1 (IL-2 2.5 ng/mL); 0.117 µM in the assay with SNK-6 (IL-2 2.5 ng/mL); 0.0367 µM in the assay with NKL (IL-2 2.5 ng/mL). In addition, the “relative IC50” value was determined as 0.295 µM in the assay with YT (IL-2 2.5 ng/mL) and 0.137 µM in the assay with DERL-7 (IL-2 2.5 ng/mL).

In the case of `Nc1ncn([C@@H]2O[C@H](CO)[C@@H](O)[C@H]2O)c(=O)n1` [Azacitidine], the “relative IC50” value came to 1.15 µM in the assay with KAI3 (IL-2 2.5 ng/mL); 3.62 µM in the assay with IMC-1 (IL-2 20 ng/mL); 1.6 µM in the assay with NK-YS (IL-2 2.5 ng/mL); 1.47 µM with NK-92 (IL-2 2.5 ng/mL); 1.52 µM in the assay with KHYG-1 (IL-2 2.5 ng/mL); 0.384 µM in the assay with SNK-6 (IL-2 2.5 ng/mL). For the same molecule, the “relative IC50” value in the assay with NKL (IL-2 2.5 ng/mL) came to 3.86 µM; with DERL-7 (IL-2 2.5 ng/mL), 1.44 µM.

As to `Cn1cnc2c(F)c(Nc3ccc(Br)cc3F)c(C(=O)NOCCO)cc21` [Binimetinib], the “relative IC50” value was above 1 µM in the assay with SNK-6 (IL-2 2.5 ng/mL) and 0.0196 µM in the assay on NKL (IL-2 2.5 ng/mL).

For `Nc1ncn([C@H]2C[C@H](O)[C@@H](CO)O2)c(=O)n1` [Decitabine], the “relative IC50” value with KAI3 (IL-2 2.5 ng/mL) was 0.0269 µM; with NK-YS (IL-2 2.5 ng/mL) it was 0.474 µM; in the assay with NK-92 (IL-2 2.5 ng/mL) it was 0.392 µM; in the assay on KHYG-1 (IL-2 2.5 ng/mL), 0.678 µM; with SNK-6 (IL-2 2.5 ng/mL) it was 0.0318 µM; with DERL-7 (IL-2 2.5 ng/mL) it was 0.436 µM.

For the molecule `O=c1[nH]cc(F)c(=O)[nH]1` [Fluorouracil], the “relative IC50” value worked out at 1.04 µM in the assay with NK-YS (IL-2 2.5 ng/mL); 0.526 µM in the assay on NK-92 (IL-2 2.5 ng/mL); 2.01 µM in the assay with KHYG-1 (IL-2 2.5 ng/mL); 1.19 µM with SNK-6 (IL-2 2.5 ng/mL); 1.23 µM in the assay on NKL (IL-2 2.5 ng/mL); 0.82 µM in the assay with YT (IL-2 2.5 ng/mL). Further, the “relative IC50” value in the assay with DERL-7 (IL-2 2.5 ng/mL) amounted to 2.49 µM.

In the case of `CN(C)C1CCN(C(=O)c2ccc(NC(=O)Nc3ccc(-c4nc(N5CCOCC5)nc(N5CCOCC5)n4)cc3)cc2)CC1` [Gedatolisib], the “relative IC50” value was determined as 0.0859 µM in the assay with KAI3 (IL-2 2.5 ng/mL); 0.0325 µM with NK-YS (IL-2 2.5 ng/mL); 0.0756 µM with SNK-6 (IL-2 2.5 ng/mL); 0.0147 µM in the assay with NKL (IL-2 2.5 ng/mL); 0.147 µM in the assay with YT (IL-2 2.5 ng/mL); 0.0274 µM with DERL-7 (IL-2 2.5 ng/mL).

In the case of `C=CC(=O)N1CCC[C@@H](n2nc(-c3ccc(Oc4ccccc4)cc3)c3c(N)ncnc32)C1` [Ibrutinib], the “relative IC50” value in the assay on IMC-1 (IL-2 20 ng/mL) was above 1 µM.

As to `CC[C@H](Nc1ncnc2[nH]cnc12)c1nc2cccc(F)c2c(=O)n1-c1ccccc1` [Idelalisib], the “relative IC50” value amounted to 0.0317 µM in the assay on NK-92 (IL-2 2.5 ng/mL), 0.891 µM with SNK-6 (IL-2 2.5 ng/mL) and 0.675 µM with DERL-7 (IL-2 2.5 ng/mL).

Take `CCC(C)n1ncn(-c2ccc(N3CCN(c4ccc(OCC5COC(Cn6cncn6)(c6ccc(Cl)cc6Cl)O5)cc4)CC3)cc2)c1=O` (stereo not drawn) [Itraconazole]: the “relative IC50” value in the assay with KAI3 (IL-2 2.5 ng/mL) was found to be 1.03 µM; with NK-YS (IL-2 2.5 ng/mL), 1.08 µM; with NK-92 (IL-2 2.5 ng/mL), 0.572 µM; in the assay on KHYG-1 (IL-2 2.5 ng/mL) it was 1.29 µM; with SNK-6 (IL-2 2.5 ng/mL) it was 0.503 µM; in the assay on NKL (IL-2 2.5 ng/mL), 1.77 µM. For the same molecule, the “relative IC50” value in the assay with DERL-7 (IL-2 2.5 ng/mL) turned out to be 1.16 µM.

With `C[C@]1(O)C[C@@H](c2nc(-c3ccc4ccc(-c5ccccc5)nc4c3)c3c(N)nccn32)C1` [Linsitinib], the “relative IC50” value in the assay with IMC-1 (IL-2 20 ng/mL) is above 10 µM.

Regarding `Cn1cc(-c2cnn3c(N)c(Br)c([C@@H]4CCCNC4)nc23)cn1` [MK-8776], the “relative IC50” value with KAI3 (IL-2 2.5 ng/mL) is 0.337 µM; with NK-YS (IL-2 2.5 ng/mL), 0.668 µM; with NK-92 (IL-2 2.5 ng/mL) it was 0.75 µM; with KHYG-1 (IL-2 2.5 ng/mL), 0.311 µM; in the assay with NKL (IL-2 2.5 ng/mL), 0.372 µM; with DERL-7 (IL-2 2.5 ng/mL) it was 0.539 µM.

In the case of `CC1(C)CNc2cc(NC(=O)c3cccnc3NCc3ccncc3)ccc21` [Motesanib], the “relative IC50” value in the assay with SNK-6 (IL-2 2.5 ng/mL) was above 10 µM.

`COc1cccc2cc(-c3nc([C@H]4CC[C@H](C(=O)O)CC4)n4ncnc(N)c34)[nH]c12` [OSI-027]: the “relative IC50” value with KAI3 (IL-2 2.5 ng/mL) worked out at 0.775 µM; in the assay on NK-YS (IL-2 2.5 ng/mL) it was 1.82 µM; in the assay on NK-92 (IL-2 2.5 ng/mL) it was 0.579 µM; with KHYG-1 (IL-2 2.5 ng/mL), 1.5 µM; in the assay on SNK-6 (IL-2 2.5 ng/mL) it was 0.564 µM; in the assay on NKL (IL-2 2.5 ng/mL), 0.342 µM. Besides, the “relative IC50” value in the assay on YT (IL-2 2.5 ng/mL) amounted to 1.16 µM; in the assay with DERL-7 (IL-2 2.5 ng/mL) it was 1.22 µM.

On to `CC(C)(C)c1cc(NC(=O)Nc2ccc(-c3cn4c(n3)sc3cc(OCCN5CCOCC5)ccc34)cc2)no1` [Quizartinib], for which the entries for the “relative IC50” value with KAI3 (IL-2 2.5 ng/mL), in the assay on IMC-1 (IL-2 20 ng/mL) and with KHYG-1 (IL-2 2.5 ng/mL) were 0.165 µM, above 1 µM and 0.233 µM, respectively.

`O=C(c1ccc(OCCN2CCCCC2)cc1)c1c(-c2ccc(O)cc2)sc2cc(O)ccc12` [Raloxifene]: the “relative IC50” value in the assay with KAI3 (IL-2 2.5 ng/mL) was 2.77 µM; in the assay on NK-92 (IL-2 2.5 ng/mL), 3.29 µM; in the assay with KHYG-1 (IL-2 2.5 ng/mL), 1.74 µM; with SNK-6 (IL-2 2.5 ng/mL), 4.5 µM; with NKL (IL-2 2.5 ng/mL) it was 1.68 µM; in the assay with YT (IL-2 2.5 ng/mL), 3.07 µM. Besides, in the assay with DERL-7 (IL-2 2.5 ng/mL), the “relative IC50” value was 1.74 µM.

Turning to `CO[C@H]1C[C@@H]2CC[C@@H](C)[C@@](O)(O2)C(=O)C(=O)N2CCCC[C@H]2C(=O)O[C@H]([C@H](C)C[C@@H]2CC[C@@H](OP(C)(C)=O)[C@H](OC)C2)CC(=O)[C@H](C)/C=C(\C)[C@@H](O)[C@@H](OC)C(=O)[C@H](C)C[C@H](C)/C=C/C=C/C=C/1C` [Ridaforolimus], the “relative IC50” value in the assay with IMC-1 (IL-2 20 ng/mL) was above 0.1 µM; in the assay on NK-YS (IL-2 2.5 ng/mL), 0.0004 µM; with KHYG-1 (IL-2 2.5 ng/mL), 0.00975 µM; in the assay on SNK-6 (IL-2 2.5 ng/mL), 0.00053 µM; in the assay on NKL (IL-2 2.5 ng/mL), 0.00018 µM; in the assay on DERL-7 (IL-2 2.5 ng/mL), 0.00104 µM.

Take `Nc1nc(N)c2nc(-c3cccc(O)c3)c(-c3cccc(O)c3)nc2n1` [TG100-115]: the “relative IC50” value in the assay on SNK-6 (IL-2 2.5 ng/mL) stood at 0.132 µM.

For the molecule `CS(=O)(=O)c1ccc(-c2cnc(N)c(C(=O)Nc3ccccc3)n2)cc1` [VE-821], the “relative IC50” value turned out to be 0.332 µM in the assay on KAI3 (IL-2 2.5 ng/mL); 2.66 µM in the assay with IMC-1 (IL-2 20 ng/mL); 1.55 µM in the assay with KHYG-1 (IL-2 2.5 ng/mL); 0.795 µM in the assay on SNK-6 (IL-2 2.5 ng/mL); 1.54 µM with DERL-7 (IL-2 2.5 ng/mL).
